According to patent US20060073572A1, “Cytokine structurally related to IL-17” (The Johns Hopkins University, priority 2001, published 2006):
“Also recorded” adds a separate entry of the source.

Key:
Assay type in all cases: cell-based, human
IL-6 [1] = assay: IL-6 expression in PBECs (ELISA, RT-PCR)
Method: (§1) FIG. 5. Analysis of IL-6 (FIG. 5A) and IL-8 (FIG. 5B) expression in primary bronchial epithelial cells (PBECs) and human umbilical vein endothelial cells (HUVECs) stimulated by ML-1. The IL-6 and IL-8 protein release in the supernatant was determined by ELISA as described in Example 8. The results were expressed as mean+SD (n=6). *p<0.05 was considered significant vs control.
(§2) FIG. 7A-7D. Effect of PD98059 on IL-6 (FIG. 7A) and IL-8 (FIG. 7B) protein production in PBECs and HUVECs. The cells were preincubated with varying concentrations of PD98059, SB202190, or DMSO vehicle control for 1 hour, followed by stimulation with ML-1 (100 ng/ml) for 24 hours. The results are expressed as the mean+SD (n=6). *P<0.05 when compared to cultures without the addition of PD98059. FIGS. 7C and 7D. Semi-quantitative analysis of gene expression for IL-6 (FIG. 7C) and IL-8 (FIG. 7D) by RT-PCR. The cells were preincubated as described above and treated with ML-1 for 4 hours. RT-PCR was performed as described in Example 8. The results shown are representative of three separate experiments.
(§3) Primary bronchial epithelial cells (PBECs) were purchased from Clonetics (San Diego, Calif.) and cultured in bronchial epithelial basal medium (Clonetics) containing 0.5 ng/ml human recombinant epidermal growth factor (EGF), 52 mg/ml bovine pituitary extract, 0.1 mg/ml retinoic acid, 0.5 mg/ml hydrocortisone, 5 mg/ml insulin, 10 mg/ml transferrin, 0.5 mg/ml epinephrine, 6.5 ng/ml triiodothyronine, […] gentamicin, and 50 pg/ml amphotericin-B (Clonetics). […]
(§4) The amplification reaction was performed for 23 cycles with denaturation at 94° C. for 45 seconds, annealing at 56° C. for 45 seconds, and extension at 72° C. for 45 seconds. PCR products were detected by ethidium bromide staining and normalized by the intensity of an amplified housekeeping gene, G3PDH (see above). […] IL-6 and IL-8 protein levels in the collected supernatants were determined with a commercially available ELISA kit (Biosource, Camarillo, Calif.) according to the manufacturer's instructions.

IL-8 [2] = assay: IL-8 expression in PBECs (ELISA, RT-PCR)
Method: as §1, §2, §3, §4

IL-6 [3] = assay: IL-6 expression in HUVECs (ELISA, RT-PCR)
Method: as §1, §2
(§5) Human umbilical vein endothelial cells (HUVECs) were obtained from Clonetics and cultured in endothelial cell growth media (EGM; Clonetics) containing 12 μg/ml bovine brain extract, 10 ng/ml EGF, 1 μg/ml hydrocortisone, 50 μg/ml gentimicin, 50 ng/ml amphotericin B, and 5% FBS amphotericin-B (Clonetics).
(§6) PBECs and HUVECs were treated with ML-1 100 ng/ml of ML-1 for various time points. Total RNA was extracted using RNeasy (Qiagen) from 1×10^6 cells 4 hours after stimulation or exchange of media. […]
as §4

IL-8 [4] = assay: IL-8 expression in HUVECs (ELISA, RT-PCR)
Method: as §1, §2, §5, §6, §4

ERK1/2 [5] = assay: Western blotting of ERK1/2 phosphorylation in PBECs; conditions: pre-incubation with 10 μM for 1 hour, then ML-1 for 20 minutes
Method: (§7) FIGS. 6A-6D. Kinetic activation of ERK1/2 by ML-1 in PBECs (FIG. 6A) and HUVECs (FIG. 6B). The cells were incubated with or without ML-1 (100 ng/ml) for different time points as indicated. Western blotting analysis was performed by using antibodies against different MAP kinases as described in Example 8. FIGS. 6C and 6D. Effect of PD98059 on ML-1-induced phosphorylation of ERK1/2 in PBECs (FIG. 6C) and HUVECs (FIG. 6D). The cells were preincubated with PD98059 ([…]) or DMSO vehicle control for 1 hour, followed by stimulation of PBECs and HUVECs with medium or ML-1 for 20 minutes or 10 minutes, respectively. The results shown are representative of three separate experiments.
(§8) For analysis of activation of MAP kinases, PBECs were treated with IL-17 (100 ng/ml) for various time periods, with or without the MEK 1/2 inhibitor PD98059 ([…]; Calbiochem, La Jolla, Calif.) (15), the p38 inhibitor SB202190 (0.5-10 μM; ref. 16), or a vehicle control, DMSO (Me2SO) for 1 hour. […] Following the treatment, the cells were washed with ice-cold PBS. Cell pellets were immediately lysed in cold lysis buffer [20 mM Tris (pH 7.4), 4 mM EDTA, 2 mM EGTA, 1 mM PMSF, […] aprotinin, 200 mg/ml leupeptin, 50 mM NaF, 5 mM NaRP2O7, 1 mM Na3VO4, and 1% Nonidet P40; all purchased from Sigma]. Extracts (1×10^6 cell equivalents/lane) were suspended with an equal volume of 2× loading buffer [0.1 M Tris-HCl (pH 6.8)], 4% SDS, 0.005% bromophenol blue, and 20% glycerol) containing 2-ME (0.7 M) and subjected to 4-20% Tris-glycine gel electrophoresis (NOVEX, San Diego, Calif.). Gels were then transferred to PVDF membranes (BIO-RAD, Hercules, Calif.) with a Trans Blot apparatus (NOVEX). The membranes were immersed overnight in This-buffered saline/Tween 20 containing 5% nonfat dry skim milk (Carnation, Los Angeles, Calif.).
(§9) Immunoreactive proteins were detected using antibodies against various kinases and phosphorylated kinases. […] Western blotting detection reagents (Amersham) and Hyper ECL luminescence detection film (Amersham) were used. […]

ERK1/2 [6] = assay: Western blotting of ERK1/2 phosphorylation in HUVECs; conditions: pre-incubation with 10 μM for 1 hour, then ML-1 for 10 minutes
Method: as §7, §8, §9

ICAM-1 = ICAM-1 surface protein expression on NHBE cells by flow cytometry; conditions: 100 ng/ml, 48 hours, mean±SD (n=4)
Method: FIG. 4. Effect of ML-1 on ICAM-1 surface expression on NHBE cells by Flow Cytometry. NHBE cells were treated for 48 hours under following conditions: medium only, rIL-17 (100 ng/ml), purified His-tagged protein (Positope, 100 ng/ml), or ML-1 (100 ng/ml) as indicated. The mean fluorescence intensity of ICAM-1 surface expression was measured. The experiment was conducted four times. The results shown are from a representative experiment. * p<0.01.
To determine whether ML-1 is able to induce ICAM-1 expression on NHBE cells, surface expression of ICAM-1 on NHBE cells was measured and the effects of ML-1 and IL-17 were compared.
NHBE cells were treated with IL-17 (100 ng/ml), ML-1 (100 ng/ml), or a control His protein (Positope, 100 ng/ml). The cells were harvested following treatment with 0.1% trypsin-0.02% EDTA at 37° C. for 6 minutes and suspended in PBS containing 2% BSA and 0.02 % sodium azide. One million cells were incubated with a mouse anti-human ICAM-1 monoclonal antibody (R&D Systems, Minneapolis, Minn.) on ice for 30 minutes. […] After three additional washes in PBS, the cells were resuspended in PBS and immediately analyzed with a FACScan flow cytometer (Becton Dickinson, Mountain View, Calif.). […] Indices are expressed as mean±SD (n=4).

IL-8 [7] = assay: IL-8 expression in NHBE cells (RT-PCR and ELISA); conditions: 100 ng/ml
Text: FIGS. 3A-3C. FIG. 3A, Expression of ML-1 protein in COS-7 cells. COS-7 cells were transfected with a gene construct containing full-length ML-1 sequence and a tag sequence encoding poly (His) peptide. ML-1-His fusion proteins were purified from supernatants of the transfected cells using a His affinity column, run on an 8-16% SDS-polyacrylamide gel under reducing conditions, and analyzed by Western Blot using anti-His monoclonal antibody. Lane 1 represents a mock-transfected sample. Lane 2 represents an ML-1-transfected sample. The location of a 19.5 kd marker is indicated. FIG. 3B, Effect of ML-1 on IL-8 gene expression. Human primary bronchial epithelial cells (NHBE cells) were treated with different stimuli. The cells were harvested 4 hours after stimulation, and total RNA was extracted and subjected to RT-PCR using IL-8 and G3PDH primers. Lane 1, medium only; lane 2, cells treated with rIL-17 (100 ng/ml); lane 3, cells treated with purified His-tagged protein (Positope, 100 ng/ml); lane 4, cells treated with ML-1 (100 ng/ml). FIG. 3C, Effect of ML-1 on IL-8 protein production. NHBE cells were treated with the same stimuli used in FIG. 3B, and the supernatants were harvested 48 hours after stimulation.
Primary human bronchial epithelial (NHBE) cells were purchased from Clonetics (San Diego, Calif.) and cultured according to the manufacturer's instructions. The cells were treated with IL-17 (100 ng/ml), ML-1 (100 ng/ml), or a control His-tagged protein (Positope, 100 ng/ml; Invitrogen, Carlsbad, Calif.). The affinity-purified control His protein was dissolved in the same buffer as ML-1. Total RNA was extracted using Rneasy (Qiagen, Chatsworth, Calif.) from 1×10^6 cells 4 hours after stimulation or exchange of media. The protocol for cDNA synthesis was that described above. For PCR, the sequences of PCR primers were based on the human IL-8 cDNA sequence. The sequences of PCR primers for IL-8 were: forward, 5′-TCTGCAGCTCTGTGTGAAG-3′ (SEQ ID NO:14) and reverse, 5′-TAATTTCTGTGTTGGCGCA-3′ (SEQ ID NO:15). The amplification reaction was performed for 23 cycles with denaturation at 94° C. for 45 seconds, annealing at 56° C. for 45 seconds, and extension at 72° C. for 45 seconds PCR products were detected by ethidium bromide staining. The expected size for IL-8 was 154 basepairs. IL-8 protein levels in the collected supernatants were determined with a commercially available ELISA kit (Biosource, Camarillo, Calif.) according to the manufacturer's instructions.

[8] = 1 hour preincubation, varying concentrations, ML-1 100 ng/ml 24 hours
[9] = preincubation, ML-1 for 4 hours, semi-quantitative RT-PCR

Compound | effect on ML-1-induced IL-6 protein production (IL-6 [1]; [8]) | effect on ML-1-induced IL-6 gene expression (IL-6 [1]; [9]) | effect on ML-1-induced IL-8 protein production (IL-8 [2]; [8]) | effect on ML-1-induced IL-8 gene expression (IL-8 [2]; [9]) | effect on ML-1-induced IL-6 protein production (IL-6 [3]; [8]) | effect on ML-1-induced IL-6 gene expression (IL-6 [3]; [9]) | effect on ML-1-induced IL-8 protein production (IL-8 [4]; [8]) | effect on ML-1-induced IL-8 gene expression (IL-8 [4]; [9]) | effect on ML-1-induced activation of ERK1/2 (ERK1/2 [5]) | effect on ML-1-induced activation of ERK1/2 (ERK1/2 [6]) | ICAM-1 surface expression, mean fluorescence intensity (MFI) (ICAM-1) | IL-8 protein expression (IL-8 [7]; ELISA of supernatants, 48 hours) | IL-8 transcript expression (IL-8 [7]; RT-PCR)
COc1cccc(-c2cc(=O)c3ccccc3o2)c1N [PD98059] | inhibited; also recorded: not completely inhibited | Decreased levels | inhibited; also recorded: not completely inhibited | Decreased levels | inhibited; also recorded: not completely inhibited | Decreased levels | inhibited; also recorded: not completely inhibited | Decreased levels | diminished | diminished |  |  | 
IL-17: human IL-17, T-cell derived homodimeric cytokine, used as comparator |  |  |  |  |  |  |  |  |  |  | 10.07±1.22 | enhanced | enhanced
